US7365096B2, “Methods for selectively inhibiting Janus tyrosine kinase 3 (Jak3)” (Board of Regents, The University of Texas System, priority 2002, dated 2008)
Where two headings read alike, the source gives them in different places.

How the values were obtained:
[1] = Oral bioavailability estimated from allograft survival p.o. versus i.v.; conditions: ACI, rat, in vivo, 80 mg/kg p.o. gave similar survivals as 10 mg/kg i.v.
Method: To test the in vivo effects, recipients of kidney allografts were treated with 649641P (NC1153) for 7 days beginning immediately after transplantation. […] A mean survival time (MST) and SD was calculated for each group from 5-6 experiments.

[2] = test system: LEW donor or third-party BUF heart allografts; experiment: Transplantation tolerance: heart allograft challenge of long-term surviving recipients; type: in vivo, rat; conditions: recipients made tolerant with NC1153; n=3
Method: ACI rat recipients of LEW kidney allografts were treated for 14 days with NC1153 delivered by daily oral gavage. […] ACI rat recipients of LEW kidney allografts were treated for 7 days and thereafter 3×/week up to 90 days with 160 mg/kg NC1153 delivered by daily oral gavage. […] The mechanism of tolerance was examined when irradiated (400 rads) ACI recipients of LEW heart allografts were adoptively transferred with 30×10^6 purified T cells from tolerant recipients.

[3] = Kidney function and lipid metabolism in rats on low-salt diet (FIGS. 11A-F); type: in vivo, rat; conditions: 160 mg/kg oral gavage, 14 day therapy
LEW kidney allografts = experiment: Rat kidney allograft survival (LEW donors to ACI recipients); type: in vivo
[4] = test system: Jak2/Stat5a signaling pathway; experiment: Prolactin-stimulated Jak2/Stat5a signaling in rat Nb2 cells (phosphotyrosine Western blot); type: cell-based; conditions: increasing concentration, PRL stimulated
Method: Solubilization of membrane proteins, immunoprecipitation, and Western blot analysis. Frozen cell pellets were thawed on ice and solubilized in 1% TX-100 lysis buffer (10^8 cells/ml) and clarified by centrifugation, as previously described.^16 For human T-cells, supernates were incubated rotating end over end for 2 hours at 4° C. with either 5 μl/ml polyclonal rabbit antisera raised against peptides derived from the unique COOH-termini of Jak3 (amino acid [a.a.] 1104-1124), carboxyl termini of human Stat5a (a.a. 775-794) or Stat5b (a.a. 777-787).^26 Ab and immunoprecipitated proteins were captured by incubation for 30 minutes with Protein A-Sepharose beads (Pharmacia, Piscataway, N.J.), sedimented for purification, and eluted by boiling in 2×SDS-sample buffer (20% Glycerol, 10% 2-Mercaptoethanol, 4.6% SDS, 0.004% Bromophenol blue in 0.125 M Tris pH 6.8) for 4 minutes. For phosphoMapk assays, approximately 25 μg of total cell lysate was dissociated in SDS-sample buffer and separated on 10% (all others on 7.5%) SDS-PAGE under reducing conditions. […]
In FIG. 9A, it can be seen that NC1153 inhibits Jak3 driven transcription factor-Stat5a/b in PHA activated T-cells treated with increasing concentrations of NC1153 in a dose dependent manner as measured via EMSA analysis (upper panel). […]

human Jurkat T-cells = experiment: Growth / DNA synthesis of non-Jak3 expressing Jurkat cells; type: cell-based
[5] = 160 mg/kg NC1153 oral gavage 7 days, thereafter 3×/week up to 90 days

## CN(C)CC1CCCCCCCCCC(CN(C)C)C1=O (mixture of isomers) [649641P (NC1153)]
[1]
  bioavailability: ~12.5%
[2]
  survival of LEW donor heart allografts in long-term surviving recipients: > 100 days
  survival of third-party BUF heart allografts in long-term surviving recipients: 7.0±1.0 days
[3]
  nephrotoxicity and lipid metabolism (serum creatinine, clearance, cholesterol, triglycerides, LDL, HDL): is not nephrotoxic and does not affect lipid metabolism
LEW kidney allografts; [5]
  survival times of recipients surviving beyond 90 days: exceeding 200 days
  treated recipients surviving beyond treatment of 90 days: 75%
LEW kidney allografts; 649641P (NC1153) 240 mg/kg/day p.o. for 14 days
  MST: > 60 days
[4]
  Jak2/Stat5a activation by prolactin: fails to inhibit
Human Jurkat T-cells
  cell growth / DNA synthesis of Jurkat cells: did not inhibit DNA synthesis
Human Jurkat T-cells; listed as NC1153
  cell growth / DNA synthesis of Jurkat cells: does not block cell growth
